# Reference: PubChem BioAssay (NCI)
#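 In this assay, cells in 96-well plates receive the compound at five concentrations for 48 hours. Endpoints are linearly interpolated between the surrounding concentrations. The concentration for 50% growth inhibition is given as GI50. TGI denotes the concentration required for complete inhibition of growth.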
# What was measured:
# Assay in all cases: inhibition of tumour cell growth, NCI panel, 48 h
# HOP-92 NSCLC = test system: HOP-92 NSCLC
# SF-295 CNS = test system: SF-295 CNS
# DU-145 prostate = test system: DU-145 prostate
# SNB-19 CNS = test system: SNB-19 CNS
# HCC-2998 colon = test system: HCC-2998 colon
# RXF 393 renal = test system: RXF 393 renal
# SR leukemia = test system: SR leukemia
# NCI/ADR-RES ovarian = test system: NCI/ADR-RES ovarian
# 786-0 renal = test system: 786-0 renal
# T-47D breast = test system: T-47D breast
# OVCAR-8 ovarian = test system: OVCAR-8 ovarian
# SNB-75 CNS = test system: SNB-75 CNS
# HCT-15 colon = test system: HCT-15 colon
# CAKI-1 renal = test system: CAKI-1 renal
# PC-3 prostate = test system: PC-3 prostate
# COLO 205 colon = test system: COLO 205 colon
# KM12 colon = test system: KM12 colon
# HL-60(TB) leukemia = test system: HL-60(TB) leukemia
# MOLT-4 leukemia = test system: MOLT-4 leukemia
# IGROV1 ovarian = test system: IGROV1 ovarian
# K-562 leukemia = test system: K-562 leukemia
# NCI-H226 lung = test system: NCI-H226 lung
# MCF7 breast = test system: MCF7 breast
# UACC-62 melanoma = test system: UACC-62 melanoma
# NCI-H522 lung = test system: NCI-H522 lung
# RPMI-8226 leukemia = test system: RPMI-8226 leukemia
# SN12C renal = test system: SN12C renal
# BT-549 breast = test system: BT-549 breast
# MDA-MB-468 breast = test system: MDA-MB-468 breast
# SK-MEL-2 melanoma = test system: SK-MEL-2 melanoma
# SK-OV-3 ovarian = test system: SK-OV-3 ovarian
# SK-MEL-5 melanoma = test system: SK-MEL-5 melanoma
# UACC-257 melanoma = test system: UACC-257 melanoma
# CCRF-CEM leukemia = test system: CCRF-CEM leukemia
# A498 renal = test system: A498 renal
# M14 melanoma = test system: M14 melanoma
# MALME-3M melanoma = test system: MALME-3M melanoma
# SW-620 colon = test system: SW-620 colon
# TK-10 renal = test system: TK-10 renal
# A549 NSCLC = test system: A549 NSCLC
# HS 578T breast = test system: HS 578T breast
# MDA-MB-231 breast = test system: MDA-MB-231 breast
# OVCAR-4 ovarian = test system: OVCAR-4 ovarian
# SK-MEL-28 melanoma = test system: SK-MEL-28 melanoma
# HT29 colon = test system: HT29 colon
# OVCAR-3 ovarian = test system: OVCAR-3 ovarian
# U251 CNS = test system: U251 CNS
# NCI-H460 lung = test system: NCI-H460 lung
# SF-268 CNS = test system: SF-268 CNS
# HCT-116 colon = test system: HCT-116 colon
# EKVX NSCLC = test system: EKVX NSCLC
# SF-539 CNS = test system: SF-539 CNS
# ACHN renal = test system: ACHN renal
# LOX IMVI melanoma = test system: LOX IMVI melanoma
# UO-31 renal = test system: UO-31 renal
# MDA-MB-435 = test system: MDA-MB-435
# HOP-62 NSCLC = test system: HOP-62 NSCLC
# OVCAR-5 ovarian = test system: OVCAR-5 ovarian
# NCI-H23 lung = test system: NCI-H23 lung
smiles,measurement,setting,value
CC1[C@H]2[C@H](C[C@H]3[C@@H]4CC=C5c6sc(Nc7ccccc7F)nc6CC[C@]5(C)[C@H]4CC[C@@]32C)O[C@]12CC[C@@H](C)CO2 (stereo partly drawn),GI50,HOP-92 NSCLC,42.3 µM
same,TGI,HOP-92 NSCLC,> 100 µM
same,GI50,SF-295 CNS,53.3 µM
same,TGI,SF-295 CNS,> 100 µM
same,GI50,DU-145 prostate,> 100 µM
same,TGI,DU-145 prostate,> 100 µM
same,GI50,SNB-19 CNS,> 100 µM
same,TGI,SNB-19 CNS,> 100 µM
same,GI50,HCC-2998 colon,> 100 µM
same,TGI,HCC-2998 colon,> 100 µM
same,GI50,RXF 393 renal,9.09 µM
same,TGI,RXF 393 renal,66.7 µM
same,GI50,SR leukemia,24.8 µM
same,TGI,SR leukemia,> 100 µM
same,GI50,NCI/ADR-RES ovarian,> 100 µM
same,TGI,NCI/ADR-RES ovarian,> 100 µM
same,GI50,786-0 renal,85.4 µM
same,TGI,786-0 renal,> 100 µM
same,GI50,T-47D breast,25 µM
same,TGI,T-47D breast,> 100 µM
same,GI50,OVCAR-8 ovarian,> 100 µM
same,TGI,OVCAR-8 ovarian,> 100 µM
same,GI50,SNB-75 CNS,31.2 µM
same,TGI,SNB-75 CNS,> 100 µM
same,GI50,HCT-15 colon,56.1 µM
same,TGI,HCT-15 colon,> 100 µM
same,GI50,CAKI-1 renal,> 100 µM
same,TGI,CAKI-1 renal,> 100 µM
same,GI50,PC-3 prostate,26.3 µM
same,TGI,PC-3 prostate,> 100 µM
same,GI50,COLO 205 colon,62.1 µM
same,TGI,COLO 205 colon,> 100 µM
same,GI50,KM12 colon,> 100 µM
same,TGI,KM12 colon,> 100 µM
same,GI50,HL-60(TB) leukemia,30.1 µM
same,TGI,HL-60(TB) leukemia,> 100 µM
same,GI50,MOLT-4 leukemia,25.7 µM
same,TGI,MOLT-4 leukemia,> 100 µM
same,GI50,IGROV1 ovarian,> 100 µM
same,TGI,IGROV1 ovarian,> 100 µM
same,GI50,K-562 leukemia,26.6 µM
same,TGI,K-562 leukemia,> 100 µM
same,GI50,NCI-H226 lung,> 100 µM
same,TGI,NCI-H226 lung,> 100 µM
same,GI50,MCF7 breast,38.2 µM
same,TGI,MCF7 breast,> 100 µM
same,GI50,UACC-62 melanoma,43.1 µM
same,TGI,UACC-62 melanoma,> 100 µM
same,GI50,NCI-H522 lung,34.7 µM
same,TGI,NCI-H522 lung,> 100 µM
same,GI50,RPMI-8226 leukemia,35.5 µM
same,TGI,RPMI-8226 leukemia,> 100 µM
same,GI50,SN12C renal,> 100 µM
same,TGI,SN12C renal,> 100 µM
same,GI50,BT-549 breast,26.4 µM
same,TGI,BT-549 breast,> 100 µM
same,GI50,MDA-MB-468 breast,25.1 µM
same,TGI,MDA-MB-468 breast,> 100 µM
same,GI50,SK-MEL-2 melanoma,> 100 µM
same,TGI,SK-MEL-2 melanoma,> 100 µM
same,GI50,SK-OV-3 ovarian,> 100 µM
same,TGI,SK-OV-3 ovarian,> 100 µM
same,GI50,SK-MEL-5 melanoma,31.7 µM
same,TGI,SK-MEL-5 melanoma,> 100 µM
same,GI50,UACC-257 melanoma,54.1 µM
same,TGI,UACC-257 melanoma,> 100 µM
same,GI50,CCRF-CEM leukemia,5.1 µM
same,TGI,CCRF-CEM leukemia,> 100 µM
same,GI50,A498 renal,> 100 µM
same,TGI,A498 renal,> 100 µM
same,GI50,M14 melanoma,86.7 µM
same,TGI,M14 melanoma,> 100 µM
same,GI50,MALME-3M melanoma,> 100 µM
same,TGI,MALME-3M melanoma,> 100 µM
same,GI50,SW-620 colon,76.1 µM
same,TGI,SW-620 colon,> 100 µM
same,GI50,TK-10 renal,> 100 µM
same,TGI,TK-10 renal,> 100 µM
same,GI50,A549 NSCLC,> 100 µM
same,TGI,A549 NSCLC,> 100 µM
same,GI50,HS 578T breast,> 100 µM
same,TGI,HS 578T breast,> 100 µM
same,GI50,MDA-MB-231 breast,> 100 µM
same,TGI,MDA-MB-231 breast,> 100 µM
same,GI50,OVCAR-4 ovarian,> 100 µM
same,TGI,OVCAR-4 ovarian,> 100 µM
same,GI50,SK-MEL-28 melanoma,> 100 µM
same,TGI,SK-MEL-28 melanoma,> 100 µM
same,GI50,HT29 colon,60.3 µM
same,TGI,HT29 colon,> 100 µM
same,GI50,OVCAR-3 ovarian,> 100 µM
same,TGI,OVCAR-3 ovarian,> 100 µM
same,GI50,U251 CNS,> 100 µM
same,TGI,U251 CNS,> 100 µM
same,GI50,NCI-H460 lung,91.1 µM
same,TGI,NCI-H460 lung,> 100 µM
same,GI50,SF-268 CNS,> 100 µM
same,TGI,SF-268 CNS,> 100 µM
same,GI50,HCT-116 colon,37.3 µM
same,TGI,HCT-116 colon,> 100 µM
same,GI50,EKVX NSCLC,> 100 µM
same,TGI,EKVX NSCLC,> 100 µM
same,GI50,SF-539 CNS,80.9 µM
same,TGI,SF-539 CNS,> 100 µM
same,GI50,ACHN renal,> 100 µM
same,TGI,ACHN renal,> 100 µM
same,GI50,LOX IMVI melanoma,67.1 µM
same,TGI,LOX IMVI melanoma,> 100 µM
same,GI50,UO-31 renal,> 100 µM
same,TGI,UO-31 renal,> 100 µM
same,GI50,MDA-MB-435,95.4 µM
same,TGI,MDA-MB-435,> 100 µM
same,GI50,HOP-62 NSCLC,> 100 µM
same,TGI,HOP-62 NSCLC,> 100 µM
same,GI50,OVCAR-5 ovarian,> 100 µM
same,TGI,OVCAR-5 ovarian,> 100 µM
same,GI50,NCI-H23 lung,59.5 µM
same,TGI,NCI-H23 lung,> 100 µM
